Data as given in PMC8213057, “Targeting ALK2: An Open Science Approach to Developing Therapeutics for the Treatment of Diffuse Intrinsic Pontine Glioma” (Journal of Medicinal Chemistry, 2020).

Legend:
CK1g1 = CK1g1 (Homo sapiens, UniProt Q9HCP0); conditions: 1 μM; Run 1, Run 2
PKCtheta = PKCtheta (Homo sapiens, UniProt Q04759); experiment: biochemical; conditions: read-out: % enzyme activity, 1 μM; Run 1, Run 2
IKKa/CHUK = biological target: T1, IKKa/CHUK (Homo sapiens, UniProt O15111); experiment: biochemical; conditions: read-out: % enzyme activity, 1 μM; Run 1, Run 2
T1 sequence (O15111 1-745): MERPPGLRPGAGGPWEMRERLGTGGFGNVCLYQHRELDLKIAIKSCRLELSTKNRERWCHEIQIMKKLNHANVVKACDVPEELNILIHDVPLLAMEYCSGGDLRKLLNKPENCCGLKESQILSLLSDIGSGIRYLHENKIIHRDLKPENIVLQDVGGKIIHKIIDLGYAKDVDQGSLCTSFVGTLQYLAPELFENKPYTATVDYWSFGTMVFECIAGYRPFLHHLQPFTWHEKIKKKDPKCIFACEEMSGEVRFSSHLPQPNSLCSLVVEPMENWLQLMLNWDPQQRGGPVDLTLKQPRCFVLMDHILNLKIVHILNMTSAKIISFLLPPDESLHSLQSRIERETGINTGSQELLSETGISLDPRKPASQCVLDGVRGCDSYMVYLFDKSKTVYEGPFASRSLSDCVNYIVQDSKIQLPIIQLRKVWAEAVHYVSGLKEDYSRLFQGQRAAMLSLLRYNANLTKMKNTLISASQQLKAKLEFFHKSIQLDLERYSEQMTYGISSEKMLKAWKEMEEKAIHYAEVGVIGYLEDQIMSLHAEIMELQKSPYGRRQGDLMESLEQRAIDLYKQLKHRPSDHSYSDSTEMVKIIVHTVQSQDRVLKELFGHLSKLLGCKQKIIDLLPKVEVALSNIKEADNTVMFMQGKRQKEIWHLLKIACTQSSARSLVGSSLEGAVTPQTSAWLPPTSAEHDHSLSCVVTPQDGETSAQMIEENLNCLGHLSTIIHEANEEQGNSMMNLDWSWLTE

HCK = HCK (Homo sapiens, UniProt P08631); conditions: 1 μM; Run 1, Run 2
HCK, sequence (P08631 whole entry): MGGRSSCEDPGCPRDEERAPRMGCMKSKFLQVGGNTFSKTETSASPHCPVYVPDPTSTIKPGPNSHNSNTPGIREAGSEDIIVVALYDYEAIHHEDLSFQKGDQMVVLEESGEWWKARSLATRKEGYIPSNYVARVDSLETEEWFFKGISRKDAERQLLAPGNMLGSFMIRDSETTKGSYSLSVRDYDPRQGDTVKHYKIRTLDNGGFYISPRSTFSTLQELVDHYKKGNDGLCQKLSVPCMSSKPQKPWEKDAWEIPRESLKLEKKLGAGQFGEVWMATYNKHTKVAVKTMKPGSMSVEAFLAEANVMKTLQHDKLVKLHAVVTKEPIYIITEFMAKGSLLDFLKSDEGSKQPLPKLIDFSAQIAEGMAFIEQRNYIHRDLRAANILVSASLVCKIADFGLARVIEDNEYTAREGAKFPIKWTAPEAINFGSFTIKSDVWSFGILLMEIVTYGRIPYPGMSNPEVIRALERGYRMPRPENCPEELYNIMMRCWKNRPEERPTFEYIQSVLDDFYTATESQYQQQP

DLK/MAP3K12 = biological target: T2, DLK/MAP3K12 (Homo sapiens, UniProt Q12852); experiment: biochemical; conditions: read-out: % enzyme activity, 1 μM; Run 1, Run 2
T2 sequence (Q12852 1-859): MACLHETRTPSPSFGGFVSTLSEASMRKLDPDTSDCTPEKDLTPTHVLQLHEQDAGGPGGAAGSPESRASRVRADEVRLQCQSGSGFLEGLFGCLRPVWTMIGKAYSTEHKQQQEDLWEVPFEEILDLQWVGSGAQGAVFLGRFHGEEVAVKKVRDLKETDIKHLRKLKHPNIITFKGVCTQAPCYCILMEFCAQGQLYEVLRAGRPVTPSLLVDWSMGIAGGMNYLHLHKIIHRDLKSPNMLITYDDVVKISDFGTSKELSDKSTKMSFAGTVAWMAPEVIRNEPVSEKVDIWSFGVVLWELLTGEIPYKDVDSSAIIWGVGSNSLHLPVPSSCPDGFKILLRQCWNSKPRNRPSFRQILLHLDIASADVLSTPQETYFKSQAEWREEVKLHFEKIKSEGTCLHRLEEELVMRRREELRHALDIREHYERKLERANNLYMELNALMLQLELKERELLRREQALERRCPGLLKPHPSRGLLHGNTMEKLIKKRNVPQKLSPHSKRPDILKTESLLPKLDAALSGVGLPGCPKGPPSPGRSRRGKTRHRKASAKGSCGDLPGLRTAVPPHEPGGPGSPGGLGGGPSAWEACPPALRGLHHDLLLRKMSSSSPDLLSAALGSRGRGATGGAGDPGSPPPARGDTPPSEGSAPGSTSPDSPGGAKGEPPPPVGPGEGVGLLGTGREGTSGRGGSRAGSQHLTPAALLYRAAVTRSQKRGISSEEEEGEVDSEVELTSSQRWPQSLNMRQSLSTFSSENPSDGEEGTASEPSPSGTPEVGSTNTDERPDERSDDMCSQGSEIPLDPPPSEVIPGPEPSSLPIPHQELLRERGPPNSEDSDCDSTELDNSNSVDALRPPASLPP

GRK3 = biological target: T3, GRK3 (Homo sapiens, UniProt P35626); experiment: biochemical; conditions: read-out: % enzyme activity, 1 μM; Run 1, Run 2
T3 sequence (P35626 1-688): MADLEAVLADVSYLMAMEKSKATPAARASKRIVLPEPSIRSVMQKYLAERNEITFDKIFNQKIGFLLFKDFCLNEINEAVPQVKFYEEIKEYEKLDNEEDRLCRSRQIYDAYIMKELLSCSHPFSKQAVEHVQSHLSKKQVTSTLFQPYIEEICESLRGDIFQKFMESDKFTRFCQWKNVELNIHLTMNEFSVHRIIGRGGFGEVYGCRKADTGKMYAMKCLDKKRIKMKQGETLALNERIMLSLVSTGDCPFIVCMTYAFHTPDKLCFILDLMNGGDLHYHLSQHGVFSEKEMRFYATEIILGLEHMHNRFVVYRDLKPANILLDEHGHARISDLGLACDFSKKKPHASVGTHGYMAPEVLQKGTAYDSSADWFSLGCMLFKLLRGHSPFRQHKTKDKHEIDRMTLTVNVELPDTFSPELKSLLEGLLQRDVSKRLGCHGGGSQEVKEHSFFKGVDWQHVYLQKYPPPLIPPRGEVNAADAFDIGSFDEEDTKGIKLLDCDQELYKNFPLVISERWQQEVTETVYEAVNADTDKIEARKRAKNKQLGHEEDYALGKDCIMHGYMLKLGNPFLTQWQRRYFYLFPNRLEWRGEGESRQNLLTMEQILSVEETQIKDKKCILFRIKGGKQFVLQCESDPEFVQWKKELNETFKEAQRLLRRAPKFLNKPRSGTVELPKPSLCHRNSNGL

PKCb1 = PKCb1 (Homo sapiens, UniProt P05771); experiment: biochemical; conditions: read-out: % enzyme activity, 1 μM; Run 1, Run 2
PKCb1, sequence (P05771 whole entry): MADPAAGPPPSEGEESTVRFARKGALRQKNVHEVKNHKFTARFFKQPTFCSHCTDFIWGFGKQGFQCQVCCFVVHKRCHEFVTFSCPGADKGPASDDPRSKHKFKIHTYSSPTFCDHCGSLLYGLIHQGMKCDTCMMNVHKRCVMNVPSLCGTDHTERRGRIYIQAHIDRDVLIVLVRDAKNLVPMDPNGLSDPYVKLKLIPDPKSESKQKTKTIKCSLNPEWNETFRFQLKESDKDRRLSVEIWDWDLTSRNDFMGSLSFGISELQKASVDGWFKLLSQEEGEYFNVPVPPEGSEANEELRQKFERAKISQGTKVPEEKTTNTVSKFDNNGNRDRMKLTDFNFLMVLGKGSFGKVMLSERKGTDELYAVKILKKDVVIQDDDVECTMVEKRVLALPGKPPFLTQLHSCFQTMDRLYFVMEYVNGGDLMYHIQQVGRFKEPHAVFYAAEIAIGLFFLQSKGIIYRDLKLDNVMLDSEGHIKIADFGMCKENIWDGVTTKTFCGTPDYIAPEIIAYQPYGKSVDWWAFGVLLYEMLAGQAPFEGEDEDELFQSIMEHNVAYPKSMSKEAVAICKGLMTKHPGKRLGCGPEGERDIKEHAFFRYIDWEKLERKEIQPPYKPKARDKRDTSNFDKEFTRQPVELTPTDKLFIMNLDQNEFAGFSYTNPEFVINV

CK1g1, sequence (Q9HCP0 whole entry): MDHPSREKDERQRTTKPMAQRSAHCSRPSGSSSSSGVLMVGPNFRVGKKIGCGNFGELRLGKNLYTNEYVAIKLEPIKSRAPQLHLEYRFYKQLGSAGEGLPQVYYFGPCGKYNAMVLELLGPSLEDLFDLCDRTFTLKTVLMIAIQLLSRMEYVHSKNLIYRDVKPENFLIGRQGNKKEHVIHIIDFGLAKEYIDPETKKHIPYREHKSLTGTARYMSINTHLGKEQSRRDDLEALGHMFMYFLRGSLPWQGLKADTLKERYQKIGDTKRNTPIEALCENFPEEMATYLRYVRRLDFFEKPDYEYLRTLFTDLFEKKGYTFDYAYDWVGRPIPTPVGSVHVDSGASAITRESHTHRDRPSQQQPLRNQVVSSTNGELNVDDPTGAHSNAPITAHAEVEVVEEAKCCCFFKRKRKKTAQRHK
PKCtheta, sequence (Q04759 whole entry): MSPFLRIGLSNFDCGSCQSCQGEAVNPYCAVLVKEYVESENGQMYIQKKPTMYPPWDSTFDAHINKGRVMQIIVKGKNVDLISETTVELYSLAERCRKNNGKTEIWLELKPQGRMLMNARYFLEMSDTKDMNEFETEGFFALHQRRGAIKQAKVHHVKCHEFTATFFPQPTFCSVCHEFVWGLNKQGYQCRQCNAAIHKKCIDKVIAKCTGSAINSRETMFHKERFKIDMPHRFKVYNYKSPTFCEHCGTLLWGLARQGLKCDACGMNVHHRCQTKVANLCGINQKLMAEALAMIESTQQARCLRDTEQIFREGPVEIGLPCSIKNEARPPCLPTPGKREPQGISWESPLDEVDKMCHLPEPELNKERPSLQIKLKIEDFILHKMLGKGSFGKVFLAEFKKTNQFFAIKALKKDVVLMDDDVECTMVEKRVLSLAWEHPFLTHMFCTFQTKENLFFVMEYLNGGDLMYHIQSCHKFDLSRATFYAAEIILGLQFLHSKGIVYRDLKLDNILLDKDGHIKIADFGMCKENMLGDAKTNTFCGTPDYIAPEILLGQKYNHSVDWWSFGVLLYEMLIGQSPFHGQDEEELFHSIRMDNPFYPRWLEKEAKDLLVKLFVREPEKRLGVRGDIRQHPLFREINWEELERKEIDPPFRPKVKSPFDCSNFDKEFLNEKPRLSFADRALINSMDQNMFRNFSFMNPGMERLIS

SMILES	% enzyme activity (CK1g1)	remaining activity at 1 µM (PKCtheta)	remaining activity at 1 µM (IKKa/CHUK)	% enzyme activity (HCK)	remaining activity at 1 µM (DLK/MAP3K12)	remaining activity at 1 µM (GRK3)	CYP inhibition (CYP3A4-Midazolam)	remaining activity at 1 µM (PKCb1)
COc1cc(-c2cncc(-c3ccc(N4CCN(C)CC4)cc3)c2C)cc(F)c1C(N)=O [Compound 26a, 2-Fluoro-6-methoxy-4-(4-methyl-5-(4-(4-methylpiperazin-1-yl)phenyl)pyridin-3-yl)benzamide]	55.41%	85.1%	83.3%	91.96%	93.7%	94.4%	> 50 µM	85.5%
COc1cc(-c2cncc(-c3ccc(N4C[C@@H](C)N(C)[C@@H](C)C4)cc3)c2C)cc(F)c1C(N)=O [Compound 26c, 2-Fluoro-6-methoxy-4-(4-methyl-5-(4-((3R,5S)-3,4,5-trimethylpiperazin-1-yl)phenyl)pyridin-3-yl)benzamide]	69.61%	87%	87.4%	88.06%	99.2%	96.1%	> 50 µM	85.3%
